Non-standard residues stand in square brackets, D forms with d. pGlu = O=C1CC[C@@H](C(=O)O)N1
Legend:
Type in all cases: in vivo, human
[1] = test system: psoriatic arthritis in the joints of both feet; experiment: Example 62: analgesic efficacy of psoriatic arthritis, feet, topical; conditions: 1% (w/v) in WEP442, topical
Experimental: A subject with plague psoriasis had painful psoriatic arthritis in the joints of both feet for the past 10-12 years. Topical application of a composition containing 1% (w/v) of N-Ac-Tyr-Pro-Phe-Phe-NH2 (SEQ ID NO: 23) in WEP442 relieved the pain so that it was undetectable for 6-8 hours. Daily topical applications of the formulation for 5 days provided the same relief.

neck and shoulder pain = experiment: Example 16: analgesic effect on neck and shoulder pain, topical; conditions: 0.5% (w/v) in WEP442, topical
Experimental: The subject could not move their neck without having a high level of pain and discomfort. The subject topically applied a composition containing 0.5% (w/v) N-Ac-Tyr-Pro-Phe-Phe-NH2(SEQ ID NO: 23) in WEP442 to the affected area of the skin. […] The pain relief lasted for more than 2 hours.

[2] = test system: sore subcutaneous lipomas; experiment: Example 35: analgesic effect on soreness of subcutaneous lipomas, topical; conditions: 1% (w/v) in WEP442, topical
Excerpt: A subject with many subcutaneous lipomas on their arms, torso and thighs that often become painfully sore after being bumped against objects during the course of daily activities, topically applied to tenderly sore lipomas a composition containing 1% (w/v) N-Ac-Tyr-Pro-Phe-Phe-NH2 (SEQ ID NO: 23) in WEP442. Such applications were repeated multiple times over a period of two months.

chronic knee pain = experiment: Example 46: analgesic effect on chronic knee pain from post-trauma, topical; conditions: 1% (w/v) in WEP442, topical
Excerpt: Onset of pain occurred in adulthood […], worsening to a level that compromised their performance as a hospital nurse.

TMJ syndrome pain = experiment: Example 41: analgesic effect on TMJ pain, topical; conditions: 0.5% (w/v) in WEP442, topical
Excerpt: The same subject, also suffered pain from TMJ syndrome involving the left side joint for about 6 years. Attempts to alleviate the pain, e.g. cushioning mouth pieces worn during the night, failed. […] Increasing longer periods of relief have occurred over 5-6 weeks. They have reported that there was no more pain in the affected joint over a period of about one month.

[3] = test system: dental pain after filling; experiment: Example 27: analgesic effect on dental pain, applied to tooth and gum
Experimental: A subject, experienced substantial pain in an upper left retro-molar that started 3 hours after having a dental filling procedure done on the tooth. The pain became more intense over the ensuing hours, at which time they applied to the tooth and gum using a cotton tipped applicator a composition containing 1% (w/v) of N-Ac-Tyr-Pro-Phe-Phe-NH2 (SEQ ID NO: 23) in WEP442. […] Re-application of the composition provided the same relief for the same duration.

[4] = test system: severe pain on the left hip; experiment: Example 89: analgesic effect on hip pain, topical; conditions: 1% (w/v) in WEP442, topical
Excerpt: A subject had severe lumber stenosis (lower back arthritis) for about 3 years caused by a fall from a ladder 7 years earlier. The subject had been pain free from lower back arthritis due to weekly acupuncture treatment, usually at 10 AM every Tuesday. On one Friday evening, the subject suddenly developed severe pain on the left hip and the pain persisted.

[5] = test system: chronic subpatellar and peripheral patellar pain; experiment: Example 8: analgesic effect on knee pain, topical
Excerpt: A subject had chronic subpatellar and peripheral patellar pain in their knees.
The subject topically applied an anhydrous composition containing 0.7% (w/v) N-Ac-Tyr-Pro-Phe-Phe-NH2 (SEQ ID NO: 23) in EP73, formulated as described in Example 2, at bedtime. The next morning, they observed about 50% relief of pain. The subject topically re-applied the same composition under a plastic film wrap for one hour, after which they observed about 95% relief of pain.

headache = experiment: Example 72: analgesic effect on migraine headache, topical; conditions: 0.5% (w/v) in WEP442, topical
Excerpt: A subject who suffered from migraine headaches, woke up one morning with a headache, the type of which was uncertain. They topically applied to their forehead, periocular and temporal areas a composition containing 0.5% (w/v) of N-Pg-Tyr-Pro-Phe-Phe-NH2 (SEQ ID NO: 44) in WEP442.

stress headaches = experiment: Example 69: analgesic effect on repeating stress headaches, topical; conditions: 0.5% (w/v) in WEP442, topical, 5-6 headaches over 3 weeks
Excerpt: A person had repeated stress headaches for several months. Such headaches had been relieved, or partially relieved, by over-the-counter medication.

[6] = test system: chronic foot pain and neck pain; experiment: Example 67: analgesic effect on pain in feet and neck with plaque psoriasis, topical; conditions: 0.5% (w/v) in WEP442, topical
Excerpt: A person with plaque psoriasis since their early teenage years had chronic foot pain for the past 10-15 years and neck pain for the past several years. The latter had been associated with, and aggravated by occupationally keeping their neck to one side as they held a phone against their head. […] Such topical applications provided relief for over one month when used.

restless leg syndrome = experiment: Example 75: treatment of restless leg syndrome, topical; conditions: 1% (w/v) in WEP442, topical to legs after an episode
Excerpt: Restless leg syndrome (RLS) is a disorder in which involuntary movements of the legs occur during the sleeping hours. A subject, presented with RLS for a duration of about 4 years. The disorder in the subject had not responded to therapy with opiates, nor to a benzodiazepine medication.

[7] = test system: chronic osteoarthritis of the knees; experiment: Example 53: comparative analgesic efficacy in topical treatment of knee osteoarthritis; conditions: 1% (w/v) in WEP442, maintenance treatment twice daily
Experimental: A subject with chronic osteoarthritis of the knees participated in this study. Each tetrapeptide derivative was dissolved in WEP442 to make a 1% (w/v) solution. Early in the morning, the solution was applied to a knee, which was immediately wrapped in plastic film from a roll 5 inches wide. The film wrap was left in place for about 7-8 hours, and then it was removed. Such application was repeated at bedtime and removed several hours later during the night. Each 1% (w/v) solution of tetrapeptide derivative was so applied for 2 days and efficacy was evaluated by the subject. No topical treatment was made during an ensuing interval of 2-3 days, at which time treatment with a 1% (w/v) solution of another derivative was initiated and carried out as described above. In total, six tetrapeptide derivatives were evaluated for analgesic efficacy.
The following tetrapeptide derivative was judged to provide 2+ to 3+ pain relief by clinical evaluation: N-Pa-Tyr-Pro-Phe-Phe-NH2(SEQ ID NO: 64).
After the above evaluation period, maintenance treatment was done with a composition containing 1% (w/v) of N-Pg-Tyr-Pro-Phe-Phe-NH2 (SEQ ID NO: 44) in WEP442 applied twice daily.

`CC(=O)N[C@@H](Cc1ccc(O)cc1)C(=O)N1CCC[C@H]1C(=O)N[C@@H](Cc1ccccc1)C(=O)N[C@@H](Cc1ccccc1)C(N)=O` [N-Ac-Tyr-Pro-Phe-Phe-NH2] was tested, and the “duration of pain relief” value [1] was 6 to 8 h, the pain relief [1] was “undetectable” and the “duration of pain relief” value (neck and shoulder pain) was “more than 2 hours”. For the same molecule, the “relief of pain in shoulder and neck” value (neck and shoulder pain) was “approximately 90%”, the “time to pain relief” value (neck and shoulder pain) was ≤ 2 min and the time to relief [2] was ≤ 1 min. The relief of soreness ([2]; repeated over two months) was “relieved all feelings of soreness”, the “duration of absence of pain” value (chronic knee pain) was 8 h and the pain relief (chronic knee pain) was “complete absence of pain”. The “duration of pain relief” value (TMJ syndrome pain) was “more than 8 hours”, the pain relief (TMJ syndrome pain) was “rapidly and completely alleviated pain” and the “duration of pain relief” value ([3]; 1% (w/v) in WEP442) was “about 3 hours”. The “time to pain relief” value ([3]; 1% (w/v) in WEP442) was ≤ 1 min, the pain relief ([3]; 1% (w/v) in WEP442, applied to tooth and gum) was “pain ceased completely” and the analgesic effect grade [4] was 4+ (4+ (90-100%): complete relief or eradication of pain for more than 4 hours). For the same molecule, the pain relief [4] was “the pain disappeared”, the “time to pain relief” value [4] was “about 2 minutes” and the “time without return of pain” value [4] was > 12 h. The relief of pain ([5]; 0.7% (w/v) in EP73, re-applied under plastic film wrap for one hour) was “about 95%” and the relief of pain ([5]; 0.7% (w/v) in EP73, topical at bedtime, next morning) was “about 50%”.
With “N-Pg-Tyr-Pro-Phe-Phe-NH2 ([pGlu]YPFF-NH2; SMILES NC(=O)[C@H](Cc1ccccc1)NC(=O)[C@H](Cc1ccccc1)NC(=O)[C@@H]1CCCN1C(=O)[C@H](Cc1ccc(O)cc1)NC(=O)[C@@H]1CCC(=O)N1)” the headache relief (headache) was “promptly relieved and did not return”, the headache relief (stress headaches) was “completely relieved almost immediately” and the “duration of pain relief” value [6] was 8 to 10 h. For the same molecule, the pain relief [6] was “almost complete relief of pain”, the involuntary leg movement (restless leg syndrome) was “completely prevented further involuntary leg movement” and the “knee pain compared to several months earlier” value [7] was “the knee pain was substantially less”.

From patent US20190248834A1, “ENDOMORPHIN-2, TETRAPEPTIDE DERIVATIVES THEREOF, AND USES THEREOF” (priority 2016, published 2019)
